Laboratory results published in paper PMC9490316, “Covalent fragment inhibits intramembrane proteolysis” (Frontiers in Molecular Biosciences, 2022).

Target: T1, transmembrane domain of amyloid precursor protein (APPTM) (Homo sapiens, UniProt P05067)
T1 construct: gene APP; APPTM, transmembrane domain of amyloid precursor protein (5,590 Da, 15N labeled, in DPC micelles)
Test: 2D 1H-15N TROSY NMR and MALDI-TOF-MS (covalent adducts, up to six additions); the IC50 is from a gel-based assay of APPTM cleavage by PSH
Assay type: biochemical

T1 sequence (P05067 686-726 limits assumed): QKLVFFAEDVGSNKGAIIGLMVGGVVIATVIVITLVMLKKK

With `Oc1ccc(O)c2c1C1CCC2C1` [6H8] as the compound, how does the IC50 read?
Its IC50 is 2 to 4 µM.
